PubChem BioAssay (NCI)
“And” between values parts separate entries of the source, which are not always exact repeats. Identical values can stand only once.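 All cell lines were grown in 96-well plates and treated with compound for 48 hours. GI50 marks 50% less growth. TGI is the concentration that stops growth completely.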

Assays:
Experiment in all cases: NCI tumour cell line growth inhibition, 48 h
[1] = test system: SK-MEL-5 melanoma
[2] = test system: RXF 393 renal
[3] = test system: SNB-78 CNS
[4] = test system: A549 NSCLC
[5] = test system: SN12C renal
[6] = test system: HCT-15 colon
[7] = test system: SK-MEL-28 melanoma
[8] = test system: DMS 114 small cell lung
[9] = test system: OVCAR-3 ovarian
[10] = test system: MCF7 breast

Row | SMILES | GI50 [1] | TGI [1] | GI50 [2] | TGI [2] | GI50 [3] [µM] | TGI [3] [µM] | GI50 [4] | TGI [4] | GI50 [5] | TGI [5] [µM] | GI50 [6] | TGI [6] [µM] | GI50 [7] | TGI [7] | TGI [8] [µM] | TGI [9] | GI50 [9] | GI50 [10] | TGI [10]
1 | N.N.N.N.N.O=S(=O)([O-])C(F)(F)F.O=S(=O)([O-])C(F)(F)F.[Os+8] | 15 µM | 34.1 µM | 5.37 µM | 18.7 µM | 6.19 | 77.6 | 24.2 µM | > 100 µM | 12.7 µM | 37.3 | 17 µM | 56.4 | 10.8 µM | 30.2 µM | – | – | – | – | –
2 | COC1(C)C(=O)N2C1N(C(=O)OCc1ccccc1)CC2(C)C (centres undefined) | – | > 100 µM | – | > 100 µM | – | – | – | > 100 µM | – | > 100 | – | > 100 | – | > 100 µM | > 100 | > 100 µM | – | – | –
3 | Cc1cc(C)nc(NS(=O)(=O)c2ccc(NC(=O)c3cccn4c(=O)c5ccccc5nc34)cc2)n1 | – | > 100 µM | – | 67.4 µM | – | > 100 | – | > 100 µM | – | > 100 | – | > 100 | – | > 100 µM | – | – | – | – | –
4 | CCN(CC)CCCC(C)Nc1c(Sc2cnc3cc(Cl)ccc3c2NC(C)CCCN(CC)CC)cnc2cc(Cl)ccc12 (centres undefined) | – | – | – | 3.22 µM | – | 4.74 | – | 3.24 µM | – | 3.53 | – | 3.16 | – | 3.34 µM | – | 3.78 µM | – | – | –
5 | Cc1cccc2c(Nc3ccc(NS(C)(=O)=O)cc3)c3ccc([N+](=O)[O-])cc3nc12 | 0.487 µM | 1.99 µM | 1.38 µM | 3.1 µM | – | – | 0.128 µM | 3.24 µM | 0.486 µM | 7.58 | 1.19 µM | 3.54 | 1.51 µM | 4.38 µM | – | 4.91 µM | 1.45 µM | 0.0382 µM | 3.58 µM
6 | NC(=O)c1cccc(-c2cc(C(N)=O)ccc2Cl)c1 | 3.62 µM | 14.8 µM | 2.11 µM | 5.26 µM | – | – | 12.4 µM | > 100 µM | 4.85 µM | 88.3 | 0.846 µM | > 100 | 7.17 µM | > 100 µM | – | 37.5 µM | 2.36 µM | 1.01 µM | > 100 µM
7 | O=C1CSC(c2ccccc2O)N1c1nnc(Cn2ccnc2)o1 (centres undefined) | 7.4 µM | 20.2 µM | 22.7 µM | > 100 µM | – | – | 35.5 µM | > 100 µM | 12.8 µM | > 100 | 3.04 µM | > 100 | 13.8 µM | 41.2 µM | – | 16.4 µM | 3.04 µM | 5.43 µM | 23.5 µM
8 | COc1ccc(-c2onc(-c3c(C)cc(C)cc3C)c2C2=NCCN2)cc1 | – | 36.6 µM | – | > 100 µM | – | > 100 | – | > 100 µM | – | > 100 | – | > 100 | – | 48.2 µM | – | – | – | – | –
9 | COc1cccc(CC(C)=C(c2ccc(OCCCN(C)C)cc2)c2ccc(OCCCN(C)C)cc2)c1 | 0.57 µM | 1.31 µM | 0.597 µM | 2.57 µM | – | – | 0.557 µM | 1.44 µM | 0.533 µM | 1.22 | 0.478 µM | 0.95 | 0.448 µM | 0.822 µM | – | 1.2 µM | 0.545 µM | 0.441 µM | 0.859 µM
10 | O=C1CCC(N2C(=O)c3cccc(NCCCC4CCN(CCNC(=O)c5cc6c(o5)C(=O)c5ccccc5C6=O)CC4)c3C2=O)C(=O)N1 (centres undefined) | 0.163 µM | 0.303 µM | 1.03 µM | 3.08 µM | – | – | 0.189 µM | 0.471 µM | 0.252 µM | 0.806 | 0.825 µM | 2.41 | 1.88 µM | 4.57 µM | – | 0.761 µM | 0.218 µM | 0.0102 µM | 0.215 µM
11 | COc1ccc(Oc2ccccc2NC(=O)CNC(=O)c2cccc3ccccc23)cc1 | 0.377 µM | 8.41 µM | 0.494 µM | > 25 µM | – | – | 1.25 µM | > 25 µM | 2.3 µM | > 25 | 0.59 µM | > 25 | 2.27 µM | > 25 µM | – | > 25 µM | 0.387 µM | 0.259 µM | > 25 µM
12 | O=c1cccc(C#CC#CCCCO)o1 | 12.3 µM | 27.3 µM | 3.27 µM | 11.5 µM | – | – | 17.8 µM | > 58.8 µM | 5.21 µM | 16.7 | 2.11 µM | 5.3 | 5.85 µM | 22.2 µM | – | 4.94 µM | 1.93 µM | 5.02 µM | 38.3 µM
13 | C=C1CC[C@@H]2[C@](C)(COC(C)=O)[C@H](OC(C)=O)CC[C@@]2(C)[C@@H]1CC(Nc1ccc(S(=O)(=O)Nc2nccs2)cc1)C1=CCOC1=O (some centres undefined) | 4.79 µM | 17.1 µM | 2.36 µM | 4.74 µM | – | – | 3.67 µM | 11.2 µM | 1.87 µM | 4.39 | 1.73 µM | 4.12 | 3.95 µM | 15.1 µM | – | 3.64 µM | 1.88 µM | 2.59 µM | 13.6 µM
14 | Clc1ccccc1NN(Cc1ccncc1)c1ccccc1Cl | – | 27.6 µM | – | 31.8 µM | – | – | – | 29.8 µM | – | 26.5 | – | 34.3 | – | 40.7 µM | – | 26.3 µM | – | – | 53.5 µM
15 | Cc1ccc(NC(=O)CC2SC(N)=NC2=O)cc1C (centres undefined) | – | – | – | – | – | > 100 | – | > 100 µM | – | > 100 | – | > 100 | – | > 100 µM | – | > 100 µM | – | – | –
16 | O=C1c2ccccc2C(=O)N1C1(C(=O)NC2(C(=O)O)CCCC2)CCCC1 | – | > 100 µM | – | > 100 µM | – | – | – | > 100 µM | – | > 100 | – | > 100 | – | > 100 µM | – | > 100 µM | – | – | > 100 µM
17 | Cc1cc(NC(=O)c2cnc(N3CCN(CCOCCOCCOCCOCCC(=O)N[C@H](C(=O)N4C[C@H](O)C[C@H]4C(=O)N[C@@H](C)c4ccc(-c5scnc5C)cc4)C(C)(C)C)CC3)cn2)c2ncccc2c1 | 2.36 µM | 5.72 µM | 1.73 µM | 3.71 µM | – | – | 6.19 µM | > 100 µM | 2.52 µM | 7.64 | 6.39 µM | > 100 | 2.54 µM | 6.7 µM | – | 4.45 µM | 2.13 µM | 3.14 µM | > 100 µM
18 | CCOC(=O)C1=C(C)N2C(=NC3=C(CCC/C3=C\c3ccc(Cl)cc3)C2c2ccc(Cl)cc2)S1 (centres undefined) | 2.93 µM | 11.4 µM | 1.88 µM | 3.51 µM | – | – | 2.08 µM | 5.13 µM | 3.55 µM | 21.6 | 2.15 µM | 4.84 | 3.07 µM | 11.4 µM | – | 5.61 µM | 2.36 µM | 2.44 µM | 11 µM
19 | C=CCn1c(=O)c2cnc(Nc3ccc(N4CCN(C)CC4)cc3)nc2n1-c1cccc(C(C)(C)O)n1 | 0.231 µM and 0.442 µM | 1.04 µM and 7.76 µM | 0.0855 µM and 0.232 µM | 0.531 µM and 1.14 µM | – | – | 1.14 µM and 1.47 µM | 11.4 µM and > 10 µM | 0.855 µM and 0.479 µM | > 100 | 0.682 µM and 0.601 µM | > 67.1 | 4.61 µM and 4.37 µM | 20.6 µM and > 10 µM | – | 0.9 µM and 1.47 µM | 0.241 µM and 0.331 µM | 0.323 µM | 21.4 µM and > 10 µM
20 | CC1(C)CC2=C(Sc3ccccc3N2)C(=O)C1C(=O)C(=O)Nc1cc(Cl)ccc1Cl (centres undefined) | – | > 100 µM | – | > 100 µM | – | – | – | > 100 µM | – | > 100 | – | > 100 | – | > 100 µM | – | > 100 µM | – | – | > 100 µM
21 | C[C@@H]1COCCN1c1cc(-c2ccnn2C)c2ccnc(-c3ccn[nH]3)c2n1 | 0.222 µM and 0.286 µM | 0.766 µM and 2.52 µM | 0.0236 µM and 0.0851 µM | 0.0776 µM and 0.497 µM | – | – | 0.0623 µM and 0.19 µM | – | 0.184 µM and 0.314 µM | > 100 | 0.0344 µM and 0.0968 µM | > 100 | 0.361 µM and 0.777 µM | 4.2 µM and 16.8 µM | – | – | 0.223 µM and 0.406 µM | 0.0158 µM and 0.0425 µM | 23.8 µM and > 100 µM
22 | COc1cc(/C=C/[N+](=O)[O-])cc(OC)c1OC | 1.55 µM | 3 µM | 1.47 µM | 2.97 µM | – | – | 4.42 µM | 19.4 µM | 2.51 µM | 9.26 | 1.96 µM | 5.04 | 2.23 µM | 4.9 µM | – | 6.63 µM | 2.81 µM | 3.08 µM | 14.6 µM
23 | CCSc1nc(N)c(C#N)c(-c2ccco2)c1C#N | 33.3 µM | > 100 µM | 56.4 µM | > 100 µM | – | – | 41.4 µM | > 100 µM | > 100 µM | > 100 | 28.4 µM | > 100 | > 100 µM | > 100 µM | – | > 100 µM | 91.3 µM | 15 µM | > 100 µM
24 | CC1=C(Cl)C[C@@H](/C(C)=C\Cl)O[C@@]1(O)C(Br)Br | – | 54.9 µM | – | 62.2 µM | – | – | – | 60.3 µM | – | 37.2 | – | 32.4 | – | > 100 µM | – | 31.3 µM | – | – | 49.3 µM
25 | CCN(C(=O)CN1CCN(c2cc3c(cc2F)c(=O)c(C(=O)O)cn3CC)CC1)c1nc(-c2ccccc2)cs1 | 0.238 µM | 0.551 µM | 0.381 µM | > 100 µM | – | – | 0.365 µM | > 100 µM | 0.402 µM | > 100 | 0.356 µM | > 100 | 0.59 µM | > 100 µM | – | > 100 µM | 0.475 µM | 0.295 µM | > 100 µM
